Source: the supplement of paper PMC9663587

What was measured:
Paclitaxel = compound: CC(=O)O[C@H]1C(=O)[C@@]2(C)[C@H]([C@H](OC(=O)c3ccccc3)[C@]3(O)C[C@H](OC(=O)[C@H](O)[C@@H](NC(=O)c4ccccc4)c4ccccc4)C(C)=C1C3(C)C)[C@]1(OC(C)=O)CO[C@@H]1C[C@@H]2O [Paclitaxel]
Ipatasertib/GDC0068 = compound: CC(C)NC[C@@H](C(=O)N1CCN(c2ncnc3c2[C@H](C)C[C@H]3O)CC1)c1ccc(Cl)cc1 [Ipatasertib/GDC0068]
Luminespib/NVP-AUY922 = compound: CCNC(=O)c1noc(-c2cc(C(C)C)c(O)cc2O)c1-c1ccc(CN2CCOCC2)cc1 [Luminespib/NVP-AUY922]
BSJ-01-175 = compound: CN(C)C/C=C/C(=O)Nc1ccc(O[C@@H]2CCC[C@@H](Nc3ncc(Cl)c(-c4c[nH]c5ccccc45)n3)C2)cc1 [BSJ-01-175]
ABT-737 = compound: CN(C)CC[C@H](CSc1ccccc1)Nc1ccc(S(=O)(=O)NC(=O)c2ccc(N3CCN(Cc4ccccc4-c4ccc(Cl)cc4)CC3)cc2)cc1[N+](=O)[O-] [ABT-737]
Flavopiridol [1] = compound: T1, CN1CC[C@H](c2c(O)cc(O)c3c(=O)cc(-c4ccccc4Cl)oc23)[C@H](O)C1 [Flavopiridol]
Doxorubicin = compound: COc1cccc2c1C(=O)c1c(O)c3c(c(O)c1C2=O)C[C@@](O)(C(=O)CO)C[C@@H]3O[C@H]1C[C@H](N)[C@H](O)[C@H](C)O1 [Doxorubicin]
Taselisib/GDC0032 = compound: Cc1nc(-c2cn3c(n2)-c2ccc(-c4cnn(C(C)(C)C(N)=O)c4)cc2OCC3)n(C(C)C)n1 [Taselisib/GDC0032]
Olaparib/AZD2281 = compound: O=C(c1cc(Cc2n[nH]c(=O)c3ccccc23)ccc1F)N1CCN(C(=O)C2CC2)CC1 [Olaparib/AZD2281]
YKL-5-124 = compound: C=CC(=O)Nc1ccc(C(=O)Nc2[nH]nc3c2CN(C(=O)N[C@H](CN(C)C)c2ccccc2)C3(C)C)cc1 [YKL-5-124]; test: GR value, 72 h; higher = faster growth (1 = untreated, <0 = killing);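 also: breast cancer and non-malignant breast epithelial lines, nine half-log doses, viable cells counted by Hoechst and LIVE/DEAD dye imaging versus time-zero plates and DMSO controls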
BSJ-03-123 = compound: CC(=O)c1c(C)c2cnc(Nc3ccc(N4CCN(CCOCCOCCOCCNC(=O)COc5cccc6c5C(=O)N(C5CCC(=O)NC5=O)C6=O)CC4)cn3)nc2n(C2CCCC2)c1=O [BSJ-03-123]; test: as above
[2] = compound: CC(=O)c1c(C)c2cnc(Nc3ccc(N4CCNCC4)cn3)nc2n(C2CCCC2)c1=O; test: as above
[3] = compound: CCN1CCN(Cc2ccc(Nc3ncc(F)c(-c4cc(F)c5nc(C)n(C(C)C)c5c4)n3)nc2)CC1; test: as above
[4] = compound: CCc1cnn2c(NCc3ccc[n+]([O-])c3)cc(N3CCCC[C@H]3CCO)nc12; test: as above
LEE011/Ribociclib = compound: CN(C)C(=O)c1cc2cnc(Nc3ccc(N4CCNCC4)cn3)nc2n1C1CCCC1 [LEE011/Ribociclib]; test: as above
THZ531 = compound: CN(C)C/C=C/C(=O)Nc1ccc(C(=O)N2CCC[C@@H](Nc3ncc(Cl)c(-c4c[nH]c5ccccc45)n3)C2)cc1 [THZ531]; test: as above
Flavopiridol [5] = compound: T1, Flavopiridol; test: as above
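For GR50, 72 h in this document: breast cancer and non-malignant breast epithelial cell lines, Deep Dye Drop or Dye Drop imaging, nine half-log doses, GR normalized to time-zero plates and DMSO-only controls.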

Cell Line: MDAMB361
- GR50, 72 h (Paclitaxel): 0.00311 µM
- GR50, 72 h (Ipatasertib/GDC0068): 0.314 µM
- GR50, 72 h (Luminespib/NVP-AUY922): 0.00714 µM
- GR50, 72 h (BSJ-01-175): 0.00163 µM
- GR50, 72 h (ABT-737): > 10 µM
- GR50, 72 h (Flavopiridol [1]): 0.0887 µM
- GR50, 72 h (Doxorubicin): 0.0123 µM
- GR50, 72 h (Taselisib/GDC0032): 0.00177 µM
- GR50, 72 h (Olaparib/AZD2281): 4.83 µM
- GR value (YKL-5-124; 0.001 µM): 0.264 GR
- GR value (YKL-5-124; 0.003162 µM): 0.0247 GR
- GR value (YKL-5-124; 0.01 µM): -0.0567 GR
- GR value (YKL-5-124; 0.03162 µM): -0.0052 GR
- GR value (YKL-5-124; 0.1 µM): -0.0751 GR
- GR value (YKL-5-124; 0.3162 µM): -0.226 GR
- GR value (YKL-5-124; 1 µM): -0.188 GR
- GR value (YKL-5-124; 3.162 µM): -0.358 GR
- GR value (YKL-5-124; 10 µM): -0.881 GR
- GR value (BSJ-03-123; 0.001 µM): 1.09 GR
- GR value (BSJ-03-123; 0.003162 µM): 0.828 GR
- GR value (BSJ-03-123; 0.01 µM): 0.927 GR
- GR value (BSJ-03-123; 0.03162 µM): 0.784 GR
- GR value (BSJ-03-123; 0.1 µM): 0.659 GR
- GR value (BSJ-03-123; 0.3162 µM): 0.489 GR
- GR value (BSJ-03-123; 1 µM): 0.32 GR
- GR value (BSJ-03-123; 3.162 µM): 0.309 GR
- GR value (BSJ-03-123; 10 µM): -0.0683 GR
- GR value ([2]; 0.0003162 µM): 0.963 GR
- GR value ([2]; 0.001 µM): 1.12 GR
- GR value ([2]; 0.003162 µM): 0.976 GR
- GR value ([2]; 0.01 µM): 0.78 GR
- GR value ([2]; 0.03162 µM): 0.319 GR
- GR value ([2]; 0.1 µM): 0.172 GR
- GR value ([2]; 0.3162 µM): 0.0854 GR
- GR value ([2]; 1 µM): 0.151 GR
- GR value ([2]; 3.162 µM): 0.184 GR
- GR value ([3]; 0.001 µM): 0.882 GR
- GR value ([3]; 0.003162 µM): 0.631 GR
- GR value ([3]; 0.01 µM): 0.227 GR
- GR value ([3]; 0.03162 µM): 0.118 GR
- GR value ([3]; 0.1 µM): 0.119 GR
- GR value ([3]; 0.3162 µM): 0.121 GR
- GR value ([3]; 1 µM): 0.0452 GR
- GR value ([3]; 3.162 µM): -0.189 GR
- GR value ([3]; 10 µM): -0.341 GR
- GR value ([4]; 0.0001 µM): 1.02 GR
- GR value ([4]; 0.0003162 µM): 1.06 GR
- GR value ([4]; 0.001 µM): 0.999 GR
- GR value ([4]; 0.003162 µM): 1.09 GR
- GR value ([4]; 0.01 µM): 0.737 GR
- GR value ([4]; 0.03162 µM): -0.473 GR
- GR value ([4]; 0.1 µM): -0.284 GR
- GR value ([4]; 0.3162 µM): -0.28 GR
- GR value ([4]; 1 µM): -0.282 GR
- GR value (LEE011/Ribociclib; 0.001 µM): 0.49 GR
- GR value (LEE011/Ribociclib; 0.003162 µM): 0.396 GR
- GR value (LEE011/Ribociclib; 0.01 µM): 0.306 GR
- GR value (LEE011/Ribociclib; 0.03162 µM): 0.435 GR
- GR value (LEE011/Ribociclib; 0.1 µM): 0.287 GR
- GR value (LEE011/Ribociclib; 0.3162 µM): 0.0812 GR
- GR value (LEE011/Ribociclib; 1 µM): 0.176 GR
- GR value (LEE011/Ribociclib; 3.162 µM): -0.0126 GR
- GR value (LEE011/Ribociclib; 10 µM): 0.2 GR
- GR value (THZ531; 0.0001 µM): 0.955 GR
- GR value (THZ531; 0.0003162 µM): 0.912 GR
- GR value (THZ531; 0.001 µM): 0.758 GR
- GR value (THZ531; 0.003162 µM): 0.849 GR
- GR value (THZ531; 0.01 µM): 1.06 GR
- GR value (THZ531; 0.03162 µM): 0.299 GR
- GR value (THZ531; 0.1 µM): -0.82 GR
- GR value (THZ531; 0.3162 µM): -0.756 GR
- GR value (THZ531; 1 µM): -0.539 GR
- GR value (Flavopiridol [5]; 0.0001 µM): 1.05 GR
- GR value (Flavopiridol [5]; 0.0003162 µM): 0.905 GR
- GR value (Flavopiridol [5]; 0.001 µM): 0.752 GR
- GR value (Flavopiridol [5]; 0.003162 µM): 0.73 GR
- GR value (Flavopiridol [5]; 0.01 µM): 0.942 GR
- GR value (Flavopiridol [5]; 0.03162 µM): 0.753 GR
- GR value (Flavopiridol [5]; 0.1 µM): 0.562 GR
- GR value (Flavopiridol [5]; 0.3162 µM): -0.0494 GR
- GR value (Flavopiridol [5]; 1 µM): -0.402 GR
